According to PubChem BioAssay (NCI):
Several values for one entry are separate records, joined by “and”; a condition that tells them apart may be missing. Equal entries are not always repeated.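 Interpolation was linear, between the two tested concentrations surrounding the appropriate level; five concentrations were tested over 48 hours in 96-well plates. GI50: concentration for 50% inhibition of growth. TGI is the concentration that stops growth completely.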

Assays:
Assay in all cases: growth of human tumour cells (NCI), 48 h
SF-295 CNS = test system: SF-295 CNS
HS 578T breast = test system: HS 578T breast
SF-268 CNS = test system: SF-268 CNS
SK-MEL-5 melanoma = test system: SK-MEL-5 melanoma
KM12 colon = test system: KM12 colon
T-47D breast = test system: T-47D breast
OVCAR-3 ovarian = test system: OVCAR-3 ovarian
UO-31 renal = test system: UO-31 renal
BT-549 breast = test system: BT-549 breast
NCI-H226 lung = test system: NCI-H226 lung

Row | Structure (SMILES) | GI50 (SF-295 CNS) | TGI (SF-295 CNS) | GI50 (HS 578T breast) | TGI (HS 578T breast) | GI50 (SF-268 CNS) | TGI (SF-268 CNS) | GI50 (SK-MEL-5 melanoma) | TGI (SK-MEL-5 melanoma) | GI50 (KM12 colon) | TGI (KM12 colon) | GI50 (T-47D breast) | TGI (T-47D breast) | GI50 (OVCAR-3 ovarian) | TGI (OVCAR-3 ovarian) | GI50 (UO-31 renal) | TGI (UO-31 renal) | GI50 (BT-549 breast) | TGI (BT-549 breast) | TGI (NCI-H226 lung) | GI50 (NCI-H226 lung)
1 | CN1CCN(CCOc2ccc(-c3cnc4c(-c5cccc(F)c5)cnn4c3)cc2)CC1 | 1.71 µM | 3.27 µM | 1.74 µM | 4.79 µM | 1.99 µM | 4.79 µM | 1.69 µM | 3.08 µM | 1.5 µM | 3.06 µM | 1.52 µM | 3.71 µM | 1.87 µM | 4.03 µM | 1.47 µM | 3.37 µM | 3.51 µM | 14.1 µM | – | –
2 | O=C(O)c1cc(=O)c2c([nH]c3ccccc32)s1 | – | > 100 µM | – | – | – | > 100 µM | – | > 100 µM | – | > 100 µM | – | – | – | > 100 µM | – | > 100 µM | – | – | – | –
3 | C[Si](C)(c1ccc(C(=O)O)cc1)c1ccc(C(=O)O)cc1 | – | > 100 µM | – | > 100 µM | – | > 100 µM | – | > 100 µM | – | > 100 µM | – | > 100 µM | – | > 100 µM | – | – | – | > 100 µM | > 100 µM | –
4 | CCOC(=O)CN(Cn1cncn1)Cn1cncn1 | – | > 100 µM | – | – | – | – | – | 53.7 µM | – | 44.6 µM | – | – | – | 51.8 µM | – | > 100 µM | – | – | 79.2 µM | –
5 | CNc1ccc2ncccc2c1[N+](=O)[O-] | – | > 100 µM | – | – | – | > 100 µM | – | > 100 µM | – | > 100 µM | – | – | – | > 100 µM | – | > 100 µM | – | – | > 100 µM | –
6 | N#C/C(=C\c1cccc(O)c1O)C(N)=O | – | > 100 µM | – | – | – | > 100 µM | – | – | – | > 100 µM | – | – | – | > 100 µM | – | 85.3 µM | – | – | 88 µM | –
7 | COc1ccc(Nc2nc3ccccc3c3occc23)cc1 | 6.64 µM | 13.2 µM | 7.12 µM | 16.3 µM | 6.55 µM | 14.4 µM | 5.08 µM | 11.1 µM | 1.78 µM | 7.99 µM | – | – | 7.85 µM | > 50 µM | 12.3 µM | > 50 µM | 6.08 µM | 13.5 µM | – | –
8 | Cl/C(N=Nc1ccccc1)=N/Nc1ccccc1 | – | > 100 µM | – | – | – | > 100 µM | – | – | – | > 100 µM | – | – | – | – | – | – | – | – | > 100 µM | –
9 | COc1ccc(-c2cc(C(=O)Nc3cc(C(F)(F)F)cc(C(F)(F)F)c3)c3ccccc3n2)cc1 | – | 32.5 µM | – | – | – | 32.2 µM | – | 34.6 µM | – | 35.1 µM | – | – | – | 15.5 µM | – | > 100 µM | – | – | 46.9 µM | –
10 | [O-]c1ccccc1C=Nc1ccc2c(c1)CCC2.[O-]c1ccccc1C=Nc1ccc2c(c1)CCC2.[O]=[U+2]=[O] | > 100 µM | > 100 µM | – | – | > 100 µM | > 100 µM | 60.8 µM | > 100 µM | > 100 µM | > 100 µM | – | – | > 100 µM | > 100 µM | 31.2 µM | > 100 µM | – | – | > 100 µM | > 100 µM
11 | CN(C)/C=N\c1ccnc(=O)[nH]1 | – | > 100 µM | – | – | – | > 100 µM | – | > 100 µM | – | > 100 µM | – | – | – | > 100 µM | – | > 100 µM | – | – | > 100 µM | –
12 | COc1ccc(OC(C(=O)O)C(C)C)c2c1CCCC2=O (centres undefined) | – | > 100 µM | – | – | – | > 100 µM | – | > 100 µM | – | > 100 µM | – | – | – | > 100 µM | – | > 100 µM | – | – | – | –
13 | CN(Cc1ccc(C(F)(F)F)cc1)CC(O)C(=O)Nc1ccc(Cl)cc1 (centres undefined) | 1.63 µM | 3.08 µM | – | – | 1.4 µM | 2.95 µM | 1.67 µM | 3.11 µM | 1.54 µM | 2.97 µM | 1.38 µM | 2.87 µM | 1.55 µM | 3.03 µM | 1.29 µM | 2.65 µM | 1.46 µM | 2.88 µM | 3.7 µM | 1.83 µM
14 | Cc1ccc(S(=O)(=O)N=NC=C2c3ccccc3N(O)c3ccccc32)cc1 | – | 21.6 µM | – | – | – | 19.5 µM | – | 18.8 µM | – | 26.6 µM | – | – | – | 30 µM | – | 27.1 µM | – | – | 29 µM | –
15 | O=C(C#Cc1ccccc1)N1c2ccccc2CC1c1c[nH]c2ccccc12 (centres undefined) | – | 49.7 µM | – | – | – | – | – | 30 µM | – | 31.5 µM | – | – | – | 32.1 µM | – | > 100 µM | – | – | 25.8 µM | –
16 | Cc1c2c(cc3c1C(=O)C(=O)C1=C3OC[C@@H]1C)C(C)(C)CCC2 | – | 27.8 µM | – | – | – | 35.4 µM | – | 26.1 µM | – | 24.7 µM | – | – | – | 34.9 µM | – | 46.1 µM | – | – | – | –
17 | Cc1nc2ccc(Br)cc2c(=O)n1-c1ccc(NC2OCC(O)C(O)C2O)cc1 (centres undefined) | – | > 100 µM | – | > 100 µM | – | > 100 µM | – | > 100 µM | 26.3 µM and > 100 µM | 68.4 µM and > 100 µM | – | – | 34.8 µM and > 100 µM | > 100 µM | 35.8 µM and > 100 µM | > 100 µM | 24.2 µM and 99.5 µM | 53.9 µM and > 100 µM | > 100 µM | –
18 | O=C1C(=O)N(c2ccc(Cl)cc2)C(=O)C(=O)C1c1nc2ccccc2s1 | – | > 100 µM | – | – | – | > 100 µM | – | > 100 µM | – | > 100 µM | – | – | – | > 100 µM | – | > 100 µM | – | – | > 100 µM | –
19 | C#CCNC(=O)ON1C(=O)CCC1=O | – | > 100 µM | – | – | – | > 100 µM | – | – | – | > 100 µM | – | – | – | > 100 µM | – | > 100 µM | – | – | – | –
20 | COc1ccc2c(c1OC)-c1c(c3ccc([N+](=O)[O-])cc3c(=O)n1CCCBr)C2=O | 28.6 µM | > 100 µM | 70.6 µM | > 100 µM | – | – | 18.1 µM | > 100 µM | > 100 µM | > 100 µM | 97.3 µM | > 100 µM | > 100 µM | > 100 µM | 35.3 µM | > 100 µM | 50.8 µM | > 100 µM | 84.3 µM | 26.8 µM
21 | O=C1OC(c2ccccc2)=N/C1=C\c1ccc(Oc2ccc(Cl)c(Cl)c2)cc1 | – | > 100 µM | – | – | – | 57.6 µM | – | 81.6 µM | – | > 100 µM | – | – | – | – | – | 78.8 µM | – | – | – | –
22 | NNc1cnn(-c2ccccc2)c(=O)c1Cl | – | > 100 µM | – | – | – | > 100 µM | – | > 100 µM | – | > 100 µM | – | – | – | > 100 µM | – | > 100 µM | – | – | > 100 µM | –
23 | O=c1cccccc1NCCCCCCCNc1cccccc1=O | – | > 100 µM | – | – | – | > 100 µM | – | – | – | > 100 µM | – | – | – | > 100 µM | – | 80.3 µM | – | – | > 100 µM | –
